In the NIST ThermoML archive (doi:10.1021/je800460a):
Numbers after ± are expanded uncertainties.

Experiment: wn = mass fraction of the nth substance listed
Conditions: 101 kPa, Liquid

NC(CO)(CO)CO [2-amino-2-(hydroxymethyl)-1,3-propanediol] + O
Conditions | mass density, w1 = 0.0217 [kg/m3] | mass density, w1 = 0.051 [kg/m3] | mass density, w1 = 0.103 [kg/m3] | mass density, w1 = 0.158 [kg/m3] | mass density, w1 = 0.217 [kg/m3] | viscosity, w1 = 0.0217 [mPa·s] | viscosity, w1 = 0.051 [mPa·s] | viscosity, w1 = 0.103 [mPa·s] | viscosity, w1 = 0.158 [mPa·s] | viscosity, w1 = 0.217 [mPa·s]
298 K | 1001.3 ± 1 | 1009 ± 1 | 1021.6 ± 1.1 | 1033.6 ± 1.1 | 1046.5 ± 1.1 | 0.913 ± 0.028 | 0.995 ± 0.031 | 1.148 ± 0.036 | 1.353 ± 0.043 | 1.605 ± 0.051
303 K | 999.6 ± 1.1 | 1007.4 ± 1.1 | 1019.2 ± 1.1 | 1031.8 ± 1.1 | 1044.2 ± 1.2 | 0.874 ± 0.028 | 0.94 ± 0.03 | 1.059 ± 0.034 | 1.223 ± 0.039 | 1.449 ± 0.046
313 K | 994.9 ± 1.2 | 1002.8 ± 1.2 | 1014.6 ± 1.2 | 1026.8 ± 1.3 | 1038.9 ± 1.3 | 0.733 ± 0.024 | 0.799 ± 0.026 | 0.884 ± 0.029 | 1.008 ± 0.033 | 1.172 ± 0.038
323 K | 988.1 ± 1.3 | 996 ± 1.4 | 1008.2 ± 1.4 | 1019.9 ± 1.4 | 1032.7 ± 1.4 | 0.6 ± 0.021 | 0.65 ± 0.022 | 0.711 ± 0.024 | 0.808 ± 0.027 | 0.93 ± 0.032
